Measured values as given in patent US9359418B2, “Inhibitors of the T cell-specific alternative p38 activation pathway and methods of use” (The United States of America, as represented by the …, priority 2012, dated 2016).
Entries after “also recorded” stand apart in the source; their conditions may differ.

Tests used:
[1] = tested on: Naïve CD4+ T cells; assay: Th1 differentiation of naïve CD4+ T cells; type: cell-based; conditions: 2 μM; Th0 or Th1 polarizing conditions 3 days; relative to medium or (11R)-Ctrl
Method: FIGS. 5A-5D are a series of flow cytometry plots showing (11R)-71-85 inhibits Th1 differentiation. Naïve CD4^+ T cells were treated with either 2 μM of (11R)-71-85 or (11R)-Ctrl for two hours and after washing, cells were stimulated with anti-CD3 plus anti-CD28 in Th0 (neutral, FIG. 5A and FIG. 5C) or Th1 polarizing conditions (FIG. 5B and FIG. 5D) for 3 days. Cells were treated again with the same concentration of either medium (first column), (11R)-Ctrl (second column), or (11R)-71-85 (third column) for 2 hours and restimulated with PMA plus ionomycin in the presence of Golgi inhibitor for 4 hours. Expression of T bet and interferon (IFN)-γ (indicators of Th1 cells typical of a pro-inflammatory response) was analyzed by flow cytometry.
Additional studies were carried out to evaluate the effect of (11R)-71-85 on T helper (Th) cell differentiation. Expression of IFN-γ and T-bet was used as an indicator of Th1 cells typical of a pro-inflammatory response. Naïve CD4^+ T cells were treated with either medium or 2 μM of (11R)-71-85 or (11R)-Ctrl for two hours and after washing, cells were stimulated with anti-CD3 plus anti-CD28 in Th0 (neutral) or Th1 polarizing conditions for 3 days. […] Expression of T bet and IFNγ was analyzed by flow cytometry (FIGS. 5A-5D).

[2] = tested on: CD4+ T cells; assay: Cellular uptake of FITC conjugated peptides by purified CD4+ T cells; type: cell-based; conditions: FITC conjugated peptide, 2 hours at 37° C., flow cytometry
Method: FIG. 1 is a graph showing cellular uptake of (11R)-71-85 and (11R)-Ctrl. Purified CD4^+ T cells were treated with either FITC conjugated (11R)-71-85 or (11R)-Ctrl, or left untreated for 2 hours at 37° C. After incubation, cells were washed and analyzed by flow cytometry for FITC positivity.
To generate a cell-permeable form of the Gadd45α 71-85 peptide, 11 arginine residues were added to the N-terminus to produce a fusion protein referred to herein as (11R)-71-85. Cell-permeability of (11R)-71-85 was tested using purified CD4^+ T cells. (11R)-71-85 and a control peptide fused to 11 arginine residues (referred to as (11R)-Ctrl) were FITC conjugated. Purified CD4^+ T cells were treated with either FITC conjugated (11R)-71-85 or (11R)-Ctrl, or left untreated for 2 hours at 37° C. After incubation, cells were washed and analyzed by flow cytometry for FITC positivity.

[3] = tested on: Nfatc1 and Irf4 mRNA; assay: Nfatc1 and Irf4 mRNA in spleen T cells after i.v. injection; type: in vivo, mice; conditions: 50 μg i.v.; total T cells and CD4+ T cells from spleen
Method: FIG. 8 is a series of graphs showing reduction in expression of Nfatc1 and Irf4 in CD4^+ T cells following injection of (11R)-71-85. WT C57BL/6 mice were injected i.v. with 50 μg of DMSO, (11R)-Scrambled, or (11R)-71-85 and either total T cells or CD4±T cells were purified from spleen at different times. Purified cells were stimulated in vitro with anti-CD3/CD28 for 24 hours and the mRNA levels of the indicated transcription factors were determined by quantitative real-time PCR.
Expression of NFATc1 and IRF4, two transcription factors activated upon TCR stimulation, was also evaluated after intravenous (i.v.) injection of (11R)-71-85. WT C57BL/6 mice were injected i.v. with 50 μg of DMSO, (11R)-Scrambled, or (11R)-71-85, and either total T cells or CD4±T cells were purified from spleen at different times. Purified cells were stimulated in vitro with anti-CD3/CD28 for 24 hours and the mRNA levels of Nfatc1 and Irf4 were determined by quantitative real-time PCR.

[4] = tested on: tumor-infiltrating T cells; assay: KPC mice, intracellular TNF-α of tumor infiltrating cells after intraperitoneal injection; type: in vivo; conditions: 80 μg intraperitoneal every other day for 1 month
Method: FIG. 12 is a panel of flow cytometry plots showing that intraperitoneal injection of (11R)-71-85 inhibits TNF-α secretion from tumor-infiltrating T cells from KPC mice. KPC mice are genetically engineered to develop pancreatic cancer because of oncogene expression and p53 haploinsufficiency. KPC mice received intraperitoneal injections of 80 μg of either (11R)-71-85 or (11R)-Scrambled every other day for 1 month. Twenty-four hours after the last injection, tumor infiltrating cells were harvested and restimulated with PMA and ionomycin, or left unstimulated, in the presence of Golgi inhibitor for 4 hours. Expression of intracellular TNF-α was determined by flow cytometry.
A second murine model of pancreatic cancer was used to evaluate the effect of (11R)-71-85 on cytokine secretion by tumor cells. KPC mice are genetically engineered to develop pancreatic cancer because of oncogene expression and p53 haploinsufficiency. KPC mice were administered 80 μg of either (11R)-71-85 or (11R)-Scrambled by intraperitoneal injection every other day for 1 month. Twenty-four hours after the last injection, tumor infiltrating cells were harvested and restimulated with PMA and ionomycin, or left unstimulated, in the presence of Golgi inhibitor for 4 hours. Expression of intracellular TNF-α was determined by flow cytometry (FIG. 12).

[5] = tested on: PANC02 tumors; assay: PANC02 pancreatic tumor model, tumor growth after intra-tumor injection; type: in vivo, mice; conditions: relative to control animals
Method: FIGS. 9A-9C show injection of (11R)-71-85 stops the growth of established PANC02 tumors. WT C57BL/6 mice were injected with 7.5×10^5 PANC02 cells. After 16 days, mice received intra-tumor injections of (11R)-71-85 at the indicated amount or DMSO every other day. (FIG. 9A) Tumor volume from the start of injection (day 16) to day 42 in control mice and mice injected with 40 μg or 80 μg of (11R)-71-85. Sacrifice (sac.) of mice before day 42 is indicated. (FIG. 9B) weight and (FIG. 9C) appearance of the control (left) and treated (right) tumors on day 38.
The p38 MAPK has been implicated in the growth of some tumors that cause local inflammatory responses, such as pancreatic cancer. Therefore, (11R)-71-85 was tested in a pancreatic tumor model. WT C57BL/6 mice were injected with 7.5×10^5 PANC02 cells. After 16 days, mice received intra-tumor injections of 40 μg or 80 μg (11R)-71-85 or DMSO every other day. Tumor volume from the start of injection (day 16) to day 42 in control mice and mice injected with (11R)-71-85 or DMSO was determined (FIG. 9A). Weight (FIG. 9B) and appearance (FIG. 9C) of the control and treated tumors were assessed on day 38.

For “(11R)-71-85: fusion protein: 11 arginine residues added to the N-terminus of the Gadd45α 71-85 peptide (LQIHFTLIQAFCCEN; N-terminal 11 arginine; UniProt P24522 71-85, looked up, fragment)”, the “expression of IFN-γ” value [1] was “reduced expression; also recorded: blunted”, the “expression of T-bet” value [1] was “reduced expression; also recorded: blunted” and the “cellular uptake (FITC positivity)” value [2] was “taken up by the T cells”. The “Irf4 mRNA expression following TCR stimulation” value [3] was “inhibits”, the “Nfatc1 mRNA expression following TCR stimulation” value [3] was “inhibits” and the “TNF-α secretion by tumor-infiltrating T cells” value [4] was “inhibits”. The tumor volume ([5]; 40 μg or 80 μg intra-tumor every other day from day 16 to day 42) was “significantly decreased” and the tumor weight ([5]; intra-tumor injection every other day, day 38) was “significantly decreased”.
